Reference: patent US8022178B2, “Modified self-assembling peptides” (Massachusetts Institute of Technology, priority 2006, dated 2011)

Columns and labels:
[1] = test system: adipose derived stem cells (ADSC); assay: ADSC culture in functionalized peptide matrixes: cell migration; format: cell-based, human
Procedure: 3-dimensional adipose derived stem cells (ADSC) were cultured in the functionalized peptide matrixes (Table 24) and cell maintenance ability of functionalized self-assembling peptide matrixes was evaluated. ADSCs were suspended in 10% sucrose solution and mixed with peptide solution selected from Table 25. The cell suspended peptide solutions were transferred to the culture inserts (10 mm diameter, Millicell-CM, Millipore) and gels were immediately formed using cell culture medium. Cell numbers seeded in the well were 4×10^4 cells/well.
The peptide solutions shown in Table 25 were loaded in the culture inserts (10 mm diameter, Millicell-CM, Millipore) and gels were formed using cell culture medium (DMEM-F12+10% FBS, Gibco). ADSC were plated at 4×10^4 cells on the inserts and cultured up to 7 Days.
Although the cells were seeded on the surface of the matrix, the cells were migrated well into the matrix.

[2] = test system: chick Chorioallantoic Membrane; assay: Chorioallantoic Membrane (CAM) assay of angiogenesis; format: in vivo, chicken; details: hydrogel placed Day 8, histology Day 12, FIG. 30
Procedure: In vivo study of angiogenesis was performed using Chorioallantoic Membrane (CAM) assay. At Day 8 of fertilized chicken egg incubation, hydrogels of 10 mm diameter with 1 mm thickness were transferred to chick Chorioallantoic Membrane. The hydrogels were selected from Table 19 and gels were formed before the transfer. On Day 12, CAMs were collected for histology. The angiogenesis inside and below the hydrogel were evaluated by histological cross section.

Liver progenitor cells = details: encapsulated liver progenitor cells (Semino 2003); cited from earlier work
[3] = test system: bone defects of 4 mm diameter in rat skull; assay: Rat skull bone defect filled with hydrogel, bone formation evaluation; format: in vivo; details: grade 1 more than 80%, 2 more than 50%, 3 weak in X-ray
Procedure: The effects of the functionalized peptide were evaluated in vivo in rats. 6 weeks male rat sculls were used for this evaluation (two samples for each experiment).
The rats in this study underwent creation of two bone defects of 4 mm diameter, bilaterally in each skull. Some of the defects were left empty as controls.
The peptide solution was directly injected to the defects without cells. The peptide solution formed a hydrogel immediately after injection by the salt in the body fluid (e.g., blood, lymph fluid, and the like).
Bone Formation Evaluation: All animals from each group were euthanized 2 and 4 weeks later. The X-ray image of the skulls were taken. The skulls were collected, hemisected, and fixed in formalin. The defects were then trimmed, decalcified, embedded in paraffin, stained by HE staining method, and evaluated by a Veterinary pathologist, who characterized by histomorphometry the type of tissue contained within the defects. The degree of bone regeneration is graded as Complete recovery, 1 (more than 80%), 2 (more than 50%), or 3 (weak in X-ray).

neurons = neurons grown on surface (Holmes 2000); cited from earlier work
MC3T3-E1 cells = assay: Three dimensional culturing of MC3T3-E1 in hydrogel (Calcein AM, confocal); format: cell-based, mouse; details: 14 days of culture; compared to RAD16-1; FIGS. 13A-13D
Procedure: Three dimensional culturing experiment. MC3T3-E1 cells were obtained and grown to be seeded using the same protocol as described in Example 1. Cells were centrifuged and re-suspended into sucrose solution (10%) at 4×10^6 cells/ml. FHR peptide was dissolved into water to provide a 1.0% w/t solution. 1% RAD16-I solution was obtained as RAD16-I (Puramatrix™, 3DM Inc./BD Bioscience). The pH of the FHR peptide solution was adjusted to pH 5.7 by NaOH solution (i.e., so that cells can be mixed near neutral pH). The cell suspension and the peptide solution (FHR/RAD16-I) were mixed in a ratio of 1:5. The mixed solution were placed in the inserts and the cell culture medium was added to the insert to form the hydrogel. The cells were maintained by the maintenance medium (as described herein).
Fluorescence observation of the cells. After 14 days of culture, the inserts were washed by PBS and then stained by Calcein AM solution (4 uM, Invitrogen). This solution stains the live cells by the green fluorescence when excited by 480 nm light.
The RAD16-1 and FHR hydrogels in the insert was observed by confocal microscope. […] The bright areas show the cells presence. […] The quantitative measurement of proliferation and differentiation effects by the FHR peptide hydrogel were also evaluated (FIGS. 14-16A/B). […]

[4] = test system: Mouse preosteoblast cell line (MC3T3-E1); assay: Alkaline phosphatase (ALP) activity of MC3T3-E1 on hydrogels; format: cell-based; details: 1% FHR hydrogel; FIGS. 14-16A/B compared to FIGS. 3-4
Procedure: Mouse preosteoblast cell line (MC3T3-E1) was used to compare the proliferation and differentiation effects of the motifs with RAD16-1 and Collagen-I hydrogels as controls. The proliferation was measured by DNA contents and the differentiation effects were evaluated using Alkaline phosphatase (ALP) activity and secreted Osteocalcin. Alkaline phosphatase is known to be differentiation marker of osteoblast in earlier stage. Secreted Osteocalcin is known to be differentiation marker of osteoblast in later stage and its activity is correlated with the bone mineralization.
1% RAD16-I solution [self-assembling peptide solution] was obtained as RAD16-I (Puramatrix™, 3DM Inc./BD Bioscience). The functionalized peptides of Table 2 were dissolved in water at final concentration of 1% (v/w). The functionalized peptide solutions were then mixed with 1% RAD16-I solution at a ratio of 1:1 (Table 4). Each peptide solution was loaded in the Culture plate inserts (10 mm diameter, Millicell-CM, Millipore). […]
Cell proliferation was evaluated using DNA contents in the hydrogel using PicoGreen dsDNA Kits (Molecular Probes). ALP activity was quantitatively measured from cell lysis using Alkaline Phosphatase Fluorescence Assay Kit (Sigma). Osteocalcin was measured from cell culture medium using Mouse Osteocalcin EIA Kit (Biomedical Technologies Inc.).

Row | Substance | migration depth of cells ([1]; 7 days of culturing, FIG. 34) | portion of the cell migrated into the hydrogels ([1]; 7 days, compared to PRGmx) | angiogenesis inside and below the hydrogel [2] | hepatocyte marker expression (Liver progenitor cells) | Average score (degree of bone regeneration) ([3]; four weeks) | Average score (degree of bone regeneration) ([3]; two weeks) | neurite outgrowth and synapse formation (neurons) | 3-Dimensional cell proliferation (MC3T3-E1 cells) | promotion of pre-osteoblast differentiation [4]
1 | Ac(RADA)4-CONH2 | migrated less deeper than PRGmx | larger | no angiogenesis both inside and below the hydrogel | expressed markers indicative of hepatocyte phenotype | 1.0 | 3.0 | able to serve as a substrate for neurite outgrowth and formation of functionally active synapses |  | 
2 | Ac(RADA)4GGFHRRIKA-CONH2 (Ac-RADARADARADARADAGGFHRRIKA-NH2) [FHR = 1% solution; FHR-2P = 2% solution] |  |  |  |  |  |  |  | superior | some function to promote differentiation
